Source: patent publication US9238039B2, “Pyrazolo[1,5-A]pyrimidines for antiviral treatment” (Gilead Sciences, Inc., priority 2010, dated 2016)

Test system: RSV strain A2
Assay: RSV antiviral cytoprotection assay in Hep2 cells (96-well and 384-well format, Cell TiterGlo read-out)
Type: cell-based, Respiratory Syncytial Virus (RSV)
Settings: human respiratory syncytial virus; for inhibition at 0.5 µM: HEp-2, 0.5 uM, RSV-induced cytopathic effect in Hep2 cells, calculated from fitted dose response curve, normalized to 0% and 100%; for EC50: HEp-2, RSV-induced cytopathic effects, Hep2 cells, class symbols

## CS(=O)(=O)Nc1ccc(Cl)cc1C(=O)N1CCCC[C@H]1c1cc2nc(N3CC(O)C3)cc(N3CC4(COC4)C3)n2n1 [Compound 58]
  inhibition at 0.5 µM: 99%
  EC50: 0.1 to 100 nM

## CS(=O)(=O)Nc1ccc(Cl)cc1C(=O)N1CCCC[C@H]1c1cc2nc(N3CC(O)C3)cc(N3CC(O)C3)n2n1 [Compound 59]
  inhibition at 0.5 µM: 100%
  EC50: 0.1 to 100 nM

## Cc1cc(C2CC2)nc2cc([C@@H]3CCCCN3C(=O)c3cc(Cl)ccc3NS(C)(=O)=O)nn12 [Compound 60]
  inhibition at 0.5 µM: 100%
  EC50: 0.1 to 100 nM

## Cc1ccc(NS(C)(=O)=O)c(C(=O)N2CCCC[C@H]2c2cc3nc(C4CC4)cc(N4CCOCC4)n3n2)c1 [Compound 62]
  inhibition at 0.5 µM: 100%
  EC50: 0.1 to 100 nM

## CS(=O)(=O)Nc1ccc(Cl)cc1C(=O)N1CCCC[C@H]1c1cc2nc(C3CC3)cc(N3CCOCC3)n2n1 [Compound 63]
  inhibition at 0.5 µM: 98%
  EC50: 0.1 to 100 nM

## CS(=O)(=O)Nc1ccc(Cl)cc1C(=O)N1CCCC[C@H]1c1cc2nc(C3CC3)cc(N3CCC3)n2n1 [Compound 64]
  inhibition at 0.5 µM: 98%
  EC50: 0.1 to 100 nM

## Cc1ccc(NS(C)(=O)=O)c(C(=O)N2CCCC[C@H]2c2cc3nc(C4CC4)cc(N4CCC4)n3n2)c1 [Compound 65]
  inhibition at 0.5 µM: 100%
  EC50: 0.1 to 100 nM

## CC(=O)Nc1ccc(Cl)cc1C(=O)N1CCCC[C@H]1c1cc2nc(C3CC3)cc(C)n2n1 [Compound 66]
  inhibition at 0.5 µM: 99%
  EC50: 0.1 to 100 nM

## CS(=O)(=O)Nc1ccc(Cl)cc1C(=O)N1CCCC[C@H]1c1cc2nc(N3CCC3)cc(N3CCOCC3)n2n1 [Compound 67]
  inhibition at 0.5 µM: 100%
  EC50: 0.1 to 100 nM

## CS(=O)(=O)Nc1ccc(Cl)cc1C(=O)N1CCCC[C@H]1c1cc2nc(N3CC(N)C3)cc(N3CCOCC3)n2n1 [Compound 68]
  inhibition at 0.5 µM: 100%
  EC50: 0.1 to 100 nM

## CS(=O)(=O)Nc1ccc(Cl)cc1C(=O)N1CCCC[C@H]1c1cc2nc(N3CC(O)C3)cc(N3CCOCC3)n2n1 [Compound 69]
  inhibition at 0.5 µM: 100%
  EC50: 0.1 to 100 nM

## CS(=O)(=O)Nc1ccc(Cl)cc1C(=O)N1CCCC[C@H]1c1cc2nc(N3CCCO3)cc(N3CCOCC3)n2n1 [Compound 70]
  inhibition at 0.5 µM: 99%
  EC50: 0.1 to 100 nM

## CS(=O)(=O)Nc1ccc(Cl)cc1C(=O)N1CCCC[C@H]1c1cc2nc(N3CC[C@@H](O)C3)cc(N3CCOCC3)n2n1 [Compound 71]
  inhibition at 0.5 µM: 95%
  EC50: 0.1 to 100 nM

## CS(=O)(=O)Nc1ccc(Cl)cc1C(=O)N1CCCC[C@H]1c1cc2nc(N3CC(F)C3)cc(N3CCOCC3)n2n1 [Compound 72]
  inhibition at 0.5 µM: 98%
  EC50: 0.1 to 100 nM

## CS(=O)(=O)Nc1ccc(Cl)cc1C(=O)N1CCCC[C@H]1c1cc2nc(C3CCC3)cc(N3CCOCC3)n2n1 [Compound 73]
  inhibition at 0.5 µM: 99%
  EC50: 0.1 to 100 nM

## CS(=O)(=O)Nc1ccc(Cl)cc1C(=O)N1CCCC[C@H]1c1cc2nc(N3CCC3)cc(N3CCOC3)n2n1 [Compound 74]
  inhibition at 0.5 µM: 100%
  EC50: 0.1 to 100 nM

## CS(=O)(=O)Nc1ccc(Cl)cc1C(=O)N1CCCC[C@H]1c1cc2nc(N3CCC3)cc(N3CC4(COC4)C3)n2n1 [Compound 75]
  inhibition at 0.5 µM: 100%
  EC50: 0.1 to 100 nM

## CN(C)[C@H]1CCN(c2cc(N3CCC3)nc3cc([C@@H]4CCCCN4C(=O)c4cc(Cl)ccc4NS(C)(=O)=O)nn23)C1 [Compound 76]
  inhibition at 0.5 µM: 100%
  EC50: 0.1 to 100 nM

## CS(=O)(=O)Nc1ccc(Cl)cc1C(=O)N1CCCC[C@H]1c1cc2nc(N3CC(O)C3)cc(N3CCOC3)n2n1 [Compound 77]
  inhibition at 0.5 µM: 100%
  EC50: 0.1 to 100 nM

## CNC1CCN(c2nc3cc([C@@H]4CCCCN4C(=O)c4cc(Cl)ccc4NS(C)(=O)=O)nn3cc2C)C1 (some centres unmarked) [Compound 78]
  inhibition at 0.5 µM: 98%
  EC50: 0.1 to 100 nM

## CS(=O)(=O)Nc1ccc(Br)cc1C(=O)N1CCCC[C@H]1c1cc2nc(N3CCC3)cc(N3CCOCC3)n2n1 [Compound 79]
  inhibition at 0.5 µM: 100%
  EC50: 0.1 to 100 nM

## CS(=O)(=O)Nc1ccc(Br)cc1C(=O)N1CCCC[C@H]1c1cc2nc(N3CC(O)C3)cc(N3CCOCC3)n2n1 [Compound 80]
  inhibition at 0.5 µM: 100%
  EC50: 0.1 to 100 nM
